According to patent US20250161321A1, “AMINO ACID BASED CARBAMATES AND/OR UREAS FOR THE TREATMENT OF SORTILIN DEPENDENT DISEASES” (Vesper Bio ApS, priority 2022, published 2025):

The compounds below were run against h-Sortilin (Homo sapiens (Human), UniProt Q99523) (assay: Neurotensin scintillation proximity assay (SORTILIN Binding Assay [3H]NT SPA)). Conditions: displacement of 5 nM [3H]-neurotensin from 150 nM 6his-Sortilin; average of at least 2 determinations.
Chain of h-Sortilin (Q99523 78-831): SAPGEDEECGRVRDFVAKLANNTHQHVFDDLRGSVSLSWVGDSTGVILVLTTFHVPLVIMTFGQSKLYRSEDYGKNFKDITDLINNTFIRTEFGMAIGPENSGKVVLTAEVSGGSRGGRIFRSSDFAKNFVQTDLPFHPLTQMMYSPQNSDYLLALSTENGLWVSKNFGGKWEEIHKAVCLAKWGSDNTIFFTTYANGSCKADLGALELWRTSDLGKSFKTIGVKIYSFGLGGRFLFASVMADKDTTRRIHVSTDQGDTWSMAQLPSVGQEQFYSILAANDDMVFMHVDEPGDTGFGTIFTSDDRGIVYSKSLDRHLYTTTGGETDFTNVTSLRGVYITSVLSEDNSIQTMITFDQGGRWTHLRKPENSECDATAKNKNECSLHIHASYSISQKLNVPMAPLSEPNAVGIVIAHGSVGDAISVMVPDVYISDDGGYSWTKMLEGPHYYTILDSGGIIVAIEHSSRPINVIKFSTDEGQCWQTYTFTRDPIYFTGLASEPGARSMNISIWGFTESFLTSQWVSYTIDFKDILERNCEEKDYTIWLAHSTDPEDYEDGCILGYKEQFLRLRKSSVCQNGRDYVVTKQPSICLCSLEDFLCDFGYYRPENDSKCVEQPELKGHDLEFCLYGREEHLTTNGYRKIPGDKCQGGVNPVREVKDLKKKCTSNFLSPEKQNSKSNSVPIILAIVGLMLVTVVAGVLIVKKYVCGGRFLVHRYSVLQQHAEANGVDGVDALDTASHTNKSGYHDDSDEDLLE
Experimental: The exemplified compounds of the invention were tested in a Neurotensin (NTS) scintillation proximity assay (SPA). NTS, which is a 13 amino acid neuropeptide, is a sortilin ligand. The IC50 is a measure of the amount of the compound required to inhibit the binding of NTS to sortilin by 50%. The skilled person will recognise that the lower the IC50 value, the less of the compound needed to achieve the desired effect, and as a result, the chances of undesirable off-target effects are reduced.
Compound affinity was determined by measuring the displacement of [^3H]-neurotensin binding to h-Sortilin in SPA format. Total volume of 40 μl in 50 mM HEPES pH 7.4 assay buffer containing 100 mM NaCl, 2.0 mM CaCl2, 0.1% BSA and 0.1% Tween-20. Compound pre-incubation for 30 minutes at room temperature with 150 nM of 6his-Sortilin before 5 nM [3H]-Neurotensin and Ni chelate imaging beads (Perkin Elmer) were added, after 6 hours the plate was read on a ViewLux with 360 s exposure time. Dose-response evaluation of compounds was performed with 8 concentrations of drugs (covering 3 decades). IC50 values were calculated by nonlinear regression using the sigmoid concentration-response (variable slope) using CDD Vault software. All values reported are average of at least 2 determinations.
With `CC(C)(C)CC[C@H](NC(=O)NCc1ccccc1)C(=O)O` [Example 1, (2S)-2-[(benzylcarbamoyl)amino]-5,5-dimethylhexanoic acid] the IC50 was 380 nM.
`CN(Cc1ccccc1)C(=O)N[C@@H](CCC(C)(C)C)C(=O)O` [Example 2, (2S)-2-{[benzyl(methyl)carbamoyl]amino}-5,5-dimethylhexanoic acid] was tested, and the IC50 was 430 nM.
`CC(C)(C)CC[C@H](NC(=O)OCc1ccccc1)C(=O)O` [Example 3, (2S)-2-{[(benzyloxy)carbonyl]amino}-5,5-dimethylhexanoic acid] was tested, and the IC50 was 560 nM.
For `CC(C)(C)CC[C@H](NC(=O)N1CCOCC1)C(=O)O` [Example 4, (2S)-5,5-dimethyl-2-[(morpholine-4-carbonyl)amino]hexanoic acid], the IC50 was 260 nM.
`CC(C)(C)CC[C@H](NC(=O)N1CCCOCC1)C(=O)O` [Example 5, (2S)-5,5-dimethyl-2-[(1,4-oxazepane-4-carbonyl)amino]hexanoic acid] showed an IC50 of 370 nM.
